According to patent publication US20180125921A1, “USE OF QBP1 PEPTIDE FOR THE INHIBITION OF MEMORY CONSOLIDATION” (CONSEJO SUPERIOR DE INVESTIGACIONES CIENTÍFICAS, priority 2015, published 2018):
Residues, ends and D or L forms follow the SMILES beside them.

Experiments:
[1] = tested on: Drosophila melanogaster; conditions: for short-term memory (courtship suppression immediately after training) / long-term memory (courtship suppression after 24 hours): Elav-Gal4 driven expression; for short-term memory (courtship suppression immediately after training): 5 min after training; for long-term memory (courtship suppression after 24 hours): 24 h after training; for effect on fly development / normal courtship behaviour: expression in the nervous system; for normal courtship behaviour: untrained flies
[2] = tested on: Orb2A PLD; test: CR binding assay of Orb2A PLD amyloid; conditions: protein 10 μM, peptide 50 μM, aged 7 days at 37° C.
Method: (§1) Buffers, time and storage conditions, and protein/peptide concentrations used in the aforementioned techniques were as follows: • AFM-SMFS: Experiments were performed using 2-3 μM polyproteins in 10 mM Tris-HCl pH 7.5 at room temperature with proteins incubated at 4° C. between sessions and NTA-Ni2+ functionalized coverslips. For experiments in the presence of the peptides QBP1 and SCR, 20 μM of the peptide were used dissolved in DMSO, and the samples were incubated overnight with the peptide at 4° C. before the measurement. • CD: For far-UV CD spectra it was used a protein concentration of 2-5 μM in 5 mM NaH2PO4, with 0.02% NaN3, pH 6.0. […] The secondary structure content of each protein and its evolution during incubation were estimated by spectra deconvolution using the CDNN analysis program (Bohm, G., et al., Quantitative analysis of protein far UV circular dichroism spectra by neural networks, Protein Eng (1992) 5 (3): 191-5). For thermal stability measurements, the ellipticity changes induced by increasing the temperature (at a constant heating rate of 60° C./h) were measured at 222 nm in 5 mM NaH2PO4 pH 6.0 using a protein concentration of 20 μM. • Turbidimetry: Protein samples used were at 10 μM in PBS+0.02% NaN3, pH 7.0 for all the kinetic experiments. […]

[3] = tested on: Orb2A PLD; test: Turbidimetry of Orb2A PLD amyloidogenesis; conditions: protein 10 μM, peptide 50 μM, 37° C., turbidity at 405 nm
Method: as §1

[4] = tested on: Orb2A PLD; test: Far-UV CD spectroscopy of Orb2A PLD over time; conditions: peptide five fold molar excess, 37° C.
Method: as §1

[5] = tested on: Orb2A PLD; test: TEM imaging of Orb2A PLD oligomers and fibers; conditions: protein 10 μM, peptide 50 μM, 7 days at 37° C.
Method: as §1

[6] = tested on: Orb2A PLD; test: AFM-SMFS conformational polymorphism of Orb2A PLD; conditions: 20 μM peptide
Method: Buffers, time and storage conditions, and protein/peptide concentrations used in the aforementioned techniques were as follows: • AFM-SMFS: Experiments were performed using 2-3 μM polyproteins in 10 mM Tris-HCl pH 7.5 at room temperature with proteins incubated at 4° C. between sessions and NTA-Ni2+ functionalized coverslips. For experiments in the presence of the peptides QBP1 and SCR, 20 μM of the peptide were used dissolved in DMSO, and the samples were incubated overnight with the peptide at 4° C. before the measurement. • CD: For far-UV CD spectra it was used a protein concentration of 2-5 μM in 5 mM NaH2PO4, with 0.02% NaN3, pH 6.0. The QBP1 or SCR (when used) was five fold molar excess relative to proteins (final concentrations 10 to 25 μM with the final concentration (v/v) of DMSO below 0.01%). After recording the first protein spectrum (hour 0), the protein was incubated at 37° C. without stirring and additional spectra were collected at the indicated times. The secondary structure content of each protein and its evolution during incubation were estimated by spectra deconvolution using the CDNN analysis program (Bohm, G., et al., Quantitative analysis of protein far UV circular dichroism spectra by neural networks, Protein Eng (1992) 5 (3): 191-5). For thermal stability measurements, the ellipticity changes induced by increasing the temperature (at a constant heating rate of 60° C./h) were measured at 222 nm in 5 mM NaH2PO4 pH 6.0 using a protein concentration of 20 μM. • Turbidimetry: Protein samples used were at 10 μM in PBS+0.02% NaN3, pH 7.0 for all the kinetic experiments. Samples were incubated at 37° C. without stirring. SCR and QBP1 peptides were used at 50 μM. • CR binding assay: Samples were aged for 7 days at 37° C. with 0.02% NaN3 and no stirring prior to performing the measurements. The protein samples (10 μM) were dialyzed in PBS pH 7.0 for the experiments. SCR and QBP1 peptides were used at 50 μM. • TEM imaging: Protein samples (10 μM) were dialyzed in PBS pH 7.0 for all the TEM measurements. Images were taken after 7 days of incubation at 37° C. in the presence of 0.02% NaN3 without stirring.

[7] = target: full-length Orb2A (Drosophila melanogaster, UniProt Q9VSR3); test: Isothermal titration calorimetry (ITC) of peptide interaction with Orb2A; conditions: 25° C., PBS pH 7.4, Orb2A injected into excess peptide; no quantitative analysis
Sequence of full-length Orb2A (Q9VSR3 1-551 isoform Q9VSR3-2): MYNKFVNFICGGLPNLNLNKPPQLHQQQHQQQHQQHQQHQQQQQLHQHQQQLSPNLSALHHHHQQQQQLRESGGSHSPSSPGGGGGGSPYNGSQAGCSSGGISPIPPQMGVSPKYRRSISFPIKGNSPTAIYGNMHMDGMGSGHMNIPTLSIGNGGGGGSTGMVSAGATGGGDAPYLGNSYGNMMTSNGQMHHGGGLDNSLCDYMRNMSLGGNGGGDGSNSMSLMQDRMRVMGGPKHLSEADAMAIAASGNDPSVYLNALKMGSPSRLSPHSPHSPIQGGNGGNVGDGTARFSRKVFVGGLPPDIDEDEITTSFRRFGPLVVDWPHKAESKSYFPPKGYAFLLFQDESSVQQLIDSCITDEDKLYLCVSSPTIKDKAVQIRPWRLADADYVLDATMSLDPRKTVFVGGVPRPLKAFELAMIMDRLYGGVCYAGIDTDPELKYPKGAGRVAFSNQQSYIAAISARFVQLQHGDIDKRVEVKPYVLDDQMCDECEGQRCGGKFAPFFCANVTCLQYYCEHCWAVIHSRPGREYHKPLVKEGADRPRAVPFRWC
Method: Proteins were equilibrated in PBS, pH 7.4, by gel-filtration chromatography and the equilibration buffer was used to prepare the peptide solutions. Protein/peptide binding was tested by successive injections of protein sample (10 to 25 μl each) into the reaction cell loaded with peptide at high final [peptide]/[protein] molar ratios. The apparent heat of reaction for each injection was obtained by integration of the peak area. The heats developed on protein or peptide dilutions were determined in separate runs loading the sample cell or the injection syringe with buffer, respectively, in the conditions used for the binding experiments. […] Protein (Orb2A, 185 μM) and ligand (QBP1 and SCR, 300 μM and 51 μM, respectively) concentrations in the loading solutions were measured spectrophotometrically using their respective extinction coefficients. • Drosophila strains.

[8] = target: -synuclein (Homo sapiens, UniProt P37840); conditions: cited from earlier work
[9] = target: T1, Sup35 (Saccharomyces cerevisiae, UniProt P05453); conditions: cited from earlier work
T1 sequence (P05453 1-253 limits assumed): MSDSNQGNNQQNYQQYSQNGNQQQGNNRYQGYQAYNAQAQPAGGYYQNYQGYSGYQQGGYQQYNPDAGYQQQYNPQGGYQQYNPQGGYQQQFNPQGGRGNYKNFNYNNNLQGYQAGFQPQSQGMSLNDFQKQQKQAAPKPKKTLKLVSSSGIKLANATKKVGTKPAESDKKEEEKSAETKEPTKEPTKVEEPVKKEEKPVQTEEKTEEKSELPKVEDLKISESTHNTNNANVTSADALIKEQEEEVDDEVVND

[10] = target: Tau (Homo sapiens, UniProt P10636); conditions: personal communication; cited from earlier work
Sequence of Tau (P10636 whole entry): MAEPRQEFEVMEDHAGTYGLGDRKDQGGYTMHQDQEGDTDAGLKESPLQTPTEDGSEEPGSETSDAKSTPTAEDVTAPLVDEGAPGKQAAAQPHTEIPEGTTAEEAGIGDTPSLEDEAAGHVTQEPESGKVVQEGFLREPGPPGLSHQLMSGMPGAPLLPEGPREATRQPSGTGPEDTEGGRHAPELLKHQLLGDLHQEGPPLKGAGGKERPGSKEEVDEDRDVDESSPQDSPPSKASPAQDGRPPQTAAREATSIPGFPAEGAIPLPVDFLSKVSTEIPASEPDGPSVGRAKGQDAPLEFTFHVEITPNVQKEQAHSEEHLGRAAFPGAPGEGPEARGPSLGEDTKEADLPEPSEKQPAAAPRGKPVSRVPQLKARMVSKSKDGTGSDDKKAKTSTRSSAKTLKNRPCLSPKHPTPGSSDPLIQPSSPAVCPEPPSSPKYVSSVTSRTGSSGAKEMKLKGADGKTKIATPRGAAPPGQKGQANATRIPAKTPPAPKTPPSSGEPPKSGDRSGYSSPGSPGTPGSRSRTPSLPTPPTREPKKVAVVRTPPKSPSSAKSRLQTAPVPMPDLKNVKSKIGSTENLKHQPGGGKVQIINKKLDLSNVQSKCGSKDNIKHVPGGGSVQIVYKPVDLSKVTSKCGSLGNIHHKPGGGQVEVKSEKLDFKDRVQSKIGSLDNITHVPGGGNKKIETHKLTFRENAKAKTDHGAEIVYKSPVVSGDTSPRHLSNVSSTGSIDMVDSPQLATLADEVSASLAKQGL

[11] = tested on: polyQ tracks; conditions: administered orally; cited from earlier work
[12] = tested on: monomeric expanded polyQ proteins; conditions: cited from earlier work

Molecule | short-term memory (courtship suppression immediately after training) [1] | long-term memory (courtship suppression after 24 hours) [1] | effect on fly development [1] | normal courtship behaviour [1] | Orb2A PLD amyloidogenesis monitored by CR binding [2] | Orb2A PLD amyloidogenesis monitored by turbidimetry [3] | oligomerization and loss of far-UV CD signal due to aggregation and precipitation [4] | formation of oligomers and fibers by TEM [5] | putative M events (SMFS incomplete recordings) [6] | structures formed per molecule (SMFS force peaks) [6] | formation of M conformers (SMFS) ([6]; overnight 4° C., reduced from 37.7%) | interaction with Orb2A by ITC [7] | effect on NM/M conformational transition (SMFS) ([6]; overnight 4° C.) | amyloidogenesis (conformational polymorphism, oligomerization, fibrillogenesis) [8] | amyloidogenesis (conformational polymorphism, oligomerization, fibrillogenesis) [9] | amyloidogenesis [10] | amyloidogenesis of polyQ tracks in Drosophila [11] | β-conformational transition, oligomerization, fibrillogenesis, cytotoxicity and neurodegeneration of expanded polyQ proteins [12]
CC[C@H](C)[C@H](NC(=O)CNC(=O)[C@@H]1CCCN1C(=O)[C@H](Cc1c[nH]c2ccccc12)NC(=O)[C@H](Cc1c[nH]c2ccccc12)NC(=O)[C@H](CCCCN)NC(=O)[C@H](Cc1c[nH]c2ccccc12)NC(C)=O)C(=O)N[C@@H](Cc1ccccc1)C(N)=O [QBP1-f, Ac-WKWWPGIF-NH2] (Ac-WKWWPGIF-NH2) | does not interfere with short-term memory | loss of long-term memory | did not affect fly development | slightly diminished | inhibited Orb2A PLD amyloidogenesis | inhibited Orb2A PLD amyloidogenesis | suppressed the oligomerization processes and decreased the loss of signal due to aggregation and precipitation | dramatic reduction in the formation of both oligomers and fibers | fewer putative M events | fewer structures formed per molecule | 16.1% | physically interacts with Orb2A |  |  |  |  |  | 
CC[C@H](C)[C@H](NC(=O)[C@@H]1CCCN1C(=O)[C@H](Cc1c[nH]c2ccccc12)NC(C)=O)C(=O)N[C@@H](Cc1c[nH]c2ccccc12)C(=O)N[C@@H](CCCCN)C(=O)NCC(=O)N[C@@H](Cc1c[nH]c2ccccc12)C(=O)N[C@@H](Cc1ccccc1)C(N)=O [SCR, Ac-WPIWKGWF-NH2] (Ac-WPIWKGWF-NH2) | does not interfere with short-term memory | no effect | did not affect fly development | slightly diminished |  |  | not | not |  |  |  | marginal interaction | no effect |  |  |  |  | 
QBP1: polyglutamine binding peptide 1, hydrophobic peptide, known inhibitor of amyloids including HttQ expansions (SNWKWWPGIFD; QBP1) |  |  |  |  |  |  |  |  |  |  |  |  |  | inhibits amyloidogenesis | inhibits amyloidogenesis | not | can inhibit amyloidogenesis | suppressing oligomerization, fibrillogenesis as well as associated cytotoxicity and neurodegeneration
